Data as given in US20180092866A1, “SUBSTITUTED N-([1,1'-BIPHENYL]-3-YL)-[1,1'-BIPHENYL]-3-CARBOXAMIDE ANALOGS AS INHIBITORS FOR BETA-CATENIN/B-CELL LYMPHOMA 9 INTERACTIONS” (University of Utah Research Foundation, priority 2015, published 2018).
Structures can show the parent of a compound that is named as a salt.

Legend:
[1] = molecular target: T1, β-catenin/BCL9 protein-protein interactions (Homo sapiens, UniProt P35222); test: AlphaScreen competitive inhibition assay, wild-type β-catenin/BCL9; format: binding; conditions: for Ki: wild-type β-catenin (residues 138-686)/biotinylated BCL9 26-mer, Ki derived from IC50, mean ± SD
T1 construct: C-terminally His6-tagged wild-type or mutant β-catenin (residues 138-686) proteins; made in house; host or cells: E. coli BL21 DE3
T1 sequence (P35222 138-686): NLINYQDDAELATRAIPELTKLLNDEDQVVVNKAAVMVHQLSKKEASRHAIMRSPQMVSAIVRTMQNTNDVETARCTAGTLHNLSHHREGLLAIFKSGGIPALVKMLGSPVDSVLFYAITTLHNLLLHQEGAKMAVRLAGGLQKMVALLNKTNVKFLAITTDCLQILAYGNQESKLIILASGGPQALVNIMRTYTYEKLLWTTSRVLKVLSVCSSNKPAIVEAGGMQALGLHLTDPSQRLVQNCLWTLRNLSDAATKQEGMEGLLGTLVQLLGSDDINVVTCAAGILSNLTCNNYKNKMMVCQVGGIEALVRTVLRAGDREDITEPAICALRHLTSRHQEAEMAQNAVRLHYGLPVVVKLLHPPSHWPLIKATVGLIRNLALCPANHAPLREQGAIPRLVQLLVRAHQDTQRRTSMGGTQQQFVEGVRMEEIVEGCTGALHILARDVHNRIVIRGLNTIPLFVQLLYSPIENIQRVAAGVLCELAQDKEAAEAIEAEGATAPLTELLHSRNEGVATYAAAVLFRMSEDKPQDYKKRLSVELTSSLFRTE
Description: The purity of the wild-type and mutant β-catenin proteins was all greater than 95% as determined by the SDS-PAGE gel analysis. Both the wild-type and mutant β-catenin proteins are stable under the testing conditions. Native non-denaturing gel electrophoresis was performed to confirm the homogeneity of the purified proteins. Experiments were performed in white opaque 384-well plates from PerkinElmer, and the samples were read on a Synergy 2 plate reader (Biotek) with a sensitivity setting of 200 using AlphaScreen protocol with excitation at 680 nm and emission at 570 nm. All dilutions were made in 1×assay buffer containing 25 mM HEPES (pH=7.0), 100 mM NaCl, 0.01% Triton X-100, and 0.1% BSA. In the AlphaScreen competitive inhibition assay, 40 nM of C-terminally His6-tagged wild-type or mutant β-catenin (residues 138-686) proteins was incubated with 5 nM of N-terminal biotinylated human BCL9 26-mer (residues 350-375) for 30 min at 4° C., and then different concentrations of the tested inhibitors in the assay buffer were added to make a final volume of 20 μL. The mixture was incubated at 4° C. for 2 h. The donor and acceptor beads were added to a final concentration of 10 μg/mL in 25 μL of assay buffer. The mixture was incubated at 4° C. for 1 h. The IC50 value was determined by nonlinear least-square analysis of GraphPad Prism 5.0. […] The Ki values were derived from the IC50 values by a reported method (Nikolovska-Coleska et al. (2004) Anal. Biochem. […]: 261-273). Experiments were performed in triplicate and carried out in the presence of 1% DMSO.

[2] = molecular target: T2, β-catenin/E-cadherin PPIs (Homo sapiens, UniProt P35222); test: AlphaScreen selectivity assay, β-catenin/BCL9 versus β-catenin/E-cadherin; format: binding
T2 construct: β-Catenin or its mutants (residues 138-686) was cloned into a pET-28b vector; made in house; host or cells: E. coli BL21 DE3
T2 sequence (P35222 138-686): T1 sequence (P35222 138-686)
Excerpt: Human BCL9 (residues 350-375), N-terminally biotinylated human BCL9 (residues 350-375), N-terminally fluorescein-labeled human BCL9 (residues 350-375), and N-terminally biotinylated human E-cadherin (residues 824-877) were synthesized by InnoPep Inc. (San Diego, Calif., www.innopep.com). All synthesized peptides were purified by HPLC with purity >95%. The structures were validated by LC/MS. The sequences are shown in Table 2 (Ahx, 6-aminohexanoic acid).
The purity of the wild-type and mutant β-catenin proteins was all greater than 95% as determined by the SDS-PAGE gel analysis. Both the wild-type and mutant β-catenin proteins are stable under the testing conditions. Native non-denaturing gel electrophoresis was performed to confirm the homogeneity of the purified proteins. Experiments were performed in white opaque 384-well plates from PerkinElmer, and the samples were read on a Synergy 2 plate reader (Biotek) with a sensitivity setting of 200 using AlphaScreen protocol with excitation at 680 nm and emission at 570 nm. All dilutions were made in 1×assay buffer containing 25 mM HEPES (pH=7.0), 100 mM NaCl, 0.01% Triton X-100, and 0.1% BSA. […] The IC50 value was determined by nonlinear least-square analysis of GraphPad Prism 5.0. […]

SMILES | Ki [1] | selectivity for β-catenin/BCL9 over β-catenin/E-cadherin PPIs (in words) [2] | relative inhibitory potency for β-catenin/BCL9 PPIs (in words) ([1]; AlphaScreen assay, comparison with named compound)
O=C(NCCCC(=O)N1CCNCC1)c1ccc(-c2cc(C(=O)Nc3ccc(O[C@H]4CCNC4)c(-c4ccc(F)cc4)c3)ccc2O[C@H]2CCNC2)cc1 [Compound 29, 4-(4-(5′-((4′-fluoro-6-((S)-pyrrolidin-1-ium-3-yloxy)-[1,1′-biphenyl]-3-yl)carbamoyl)-2′-((S)-pyrrolidin-1-ium-3-yloxy)-[1,1′-biphenyl]-4-ylcarboxamido)butanoyl) piperazin-1-ium] | 2.1 ± 0.432 µM | much higher selectivity | comparable inhibitory potency for β-catenin/BCL9 PPIs as 21
O=C(Nc1ccc(O[C@H]2CCNC2)c(-c2ccc(F)cc2)c1)c1ccc(O[C@H]2CCNC2)c(-c2ccc(F)nc2)c1 [Compound 95, N-(4′-fluoro-6-((S)-pyrrolidin-3-yloxy)-[1,1′-biphenyl]-3-yl)-3-(6-fluoropyridin-3-yl)-4-((S)-pyrrolidin-3-yloxy)benzamide dihydrochloride] | 244 ± 13.3 µM |  | 
O=C(Nc1ccc(O[C@H]2CCNC2)c(-c2ccc(F)cc2)c1)c1ccc(O[C@H]2CCNC2)c(-c2ccc3cc(F)ccc3c2)c1 [Compound 96] | 7.17 ± 1.3 µM |  | 
O=C(Nc1ccc(O[C@H]2CCNC2)c(-c2ccc(F)cc2)c1)c1ccc(O[C@H]2CCNC2)c(-c2ccc3ccsc3c2)c1 [Compound 97] | 9.5 ± 1.12 µM |  | 
O=C(O)c1cccc(-c2cc(NC(=O)c3ccc(O[C@H]4CCNC4)c(-c4ccc(F)c(F)c4)c3)ccc2O[C@H]2CCNC2)c1 [Compound 98] | 180 ± 4.84 µM |  | 
O=C(O)c1ccc(-c2cc(NC(=O)c3ccc(O[C@H]4CCNC4)c(-c4ccc(F)c(F)c4)c3)ccc2O[C@H]2CCNC2)cc1 [Compound 99] | 156 ± 3.96 µM |  | 
CS(=O)(=O)Nc1cccc(C#Cc2cc(NC(=O)c3ccc(O[C@H]4CCNC4)c(-c4ccc(F)c(F)c4)c3)ccc2O[C@H]2CCNC2)c1 [Compound 101] | 56.2 ± 7.64 µM |  | 
CS(=O)(=O)Nc1cccc(-c2cc(NC(=O)c3ccc(O[C@H]4CCNC4)c(-c4ccc(F)c(F)c4)c3)ccc2O[C@H]2CCNC2)c1 [Compound 102] | 126 ± 10.3 µM |  | 
CC(=O)Nc1cccc(-c2cc(NC(=O)c3ccc(O[C@H]4CCNC4)c(-c4ccc(F)c(F)c4)c3)ccc2O[C@H]2CCNC2)c1 [Compound 103] | 96.4 ± 9.78 µM |  | 

The next lines start with results.

Ki [1] | selectivity for β-catenin/BCL9 over β-catenin/E-cadherin PPIs (in words) [2] | SMILES | relative inhibitory potency for β-catenin/BCL9 PPIs (in words) ([1]; AlphaScreen assay, comparison with named compound)
36 ± 7.21 µM |  | Cc1ccccc1-c1cc(NC(=O)c2ccc(O[C@H]3CCNC3)c(-c3ccc(F)c(F)c3)c2)ccc1O[C@H]1CCNC1 [Compound 91a, 3′,4′-Difluoro-N-(2′-methyl-6-((S)-pyrrolidin-3-yloxy)-[1,1′-biphenyl]-3-yl)-6-((S)-pyrrolidin-3-yloxy)-[1,1′-biphenyl]-3-carboxamide dihydrochloride] | 
40.8 ± 5.94 µM |  | Cc1cccc(-c2cc(NC(=O)c3ccc(O[C@H]4CCNC4)c(-c4ccc(F)c(F)c4)c3)ccc2O[C@H]2CCNC2)c1 [Compound 91b, 3′,4′-Difluoro-N-(3′-methyl-6-((S)-pyrrolidin-3-yloxy)-[1,1′-biphenyl]-3-yl)-6-((S)-pyrrolidin-3-yloxy)-[1,1′-biphenyl]-3-carboxamide dihydrochloride] | 
41.4 ± 9.16 µM |  | Cc1ccc(-c2cc(NC(=O)c3ccc(O[C@H]4CCNC4)c(-c4ccc(F)c(F)c4)c3)ccc2O[C@H]2CCNC2)cc1 [Compound 91c, 3′,4′-Difluoro-N-(4′-methyl-6-((S)-pyrrolidin-3-yloxy)-[1,1′-biphenyl]-3-yl)-6-((S)-pyrrolidin-3-yloxy)-[1,1′-biphenyl]-3-carboxamide dihydrochloride] | 
54.8 ± 6.24 µM |  | O=C(Nc1ccc(O[C@H]2CCNC2)c(-c2ccccc2C(F)(F)F)c1)c1ccc(O[C@H]2CCNC2)c(-c2ccc(F)c(F)c2)c1 [Compound 91d, 3′,4′-Difluoro-6-((S)-pyrrolidin-3-yloxy)-N-(6-((S)-pyrrolidin-3-yloxy)-2′-(trifluoromethyl)-[1,1′-biphenyl]-3-yl)-[1,1′-biphenyl]-3-carboxamide dihydrochloride] | 
25.9 ± 5.58 µM |  | N#Cc1cccc(-c2cc(NC(=O)c3ccc(O[C@H]4CCNC4)c(-c4ccc(F)c(F)c4)c3)ccc2O[C@H]2CCNC2)c1 [Compound 91e, N-(3′-cyano-6-((S)-pyrrolidin-3-yloxy)-[1,1′-biphenyl]-3-yl)-3′,4′-difluoro-6-((S)-pyrrolidin-3-yloxy)-[1,1′-biphenyl]-3-carboxamide dihydrochloride] | 
29.5 ± 5.77 µM |  | N#Cc1ccc(-c2cc(NC(=O)c3ccc(O[C@H]4CCNC4)c(-c4ccc(F)c(F)c4)c3)ccc2O[C@H]2CCNC2)cc1 [Compound 91f, N-(4′-cyano-6-((S)-pyrrolidin-3-yloxy)-[1,1′-biphenyl]-3-yl)-3′,4′-difluoro-6-((S)-pyrrolidin-3-yloxy)-[1,1′-biphenyl]-3-carboxamide dihydrochloride] | 
162 ± 8.69 µM |  | NC(=O)c1cccc(-c2cc(NC(=O)c3ccc(O[C@H]4CCNC4)c(-c4ccc(F)c(F)c4)c3)ccc2O[C@H]2CCNC2)c1 [Compound 91g, N-(3′-carbamoyl-6-((S)-pyrrolidin-3-yloxy)-[1,1′-biphenyl]-3-yl)-3′,4′-difluoro-6-((S)-pyrrolidin-3-yloxy)-[1,1′-biphenyl]-3-carboxamide dihydrochloride] | 
51.7 ± 6.15 µM |  | NC(=O)c1ccc(-c2cc(NC(=O)c3ccc(O[C@H]4CCNC4)c(-c4ccc(F)c(F)c4)c3)ccc2O[C@H]2CCNC2)cc1 [Compound 91h, N-(4′-carbamoyl-6-((S)-pyrrolidin-3-yloxy)-[1,1′-biphenyl]-3-yl)-3′,4′-difluoro-6-((S)-pyrrolidin-3-yloxy)-[1,1′-biphenyl]-3-carboxamide dihydrochloride] | 
11.1 ± 1.16 µM |  | NS(=O)(=O)c1ccc(-c2cc(NC(=O)c3ccc(O[C@H]4CCNC4)c(-c4ccc(F)c(F)c4)c3)ccc2O[C@H]2CCNC2)cc1 [Compound 91i, 3′,4′-Difluoro-6-((S)-pyrrolidin-3-yloxy)-N-(6-((S)-pyrrolidin-3-yloxy)-4′-sulfamoyl-[1,1′-biphenyl]-3-yl)-[1,1′-biphenyl]-3-carboxamide dihydrochloride] | 
27.3 ± 4.83 µM |  | Cc1cc(F)ccc1-c1cc(NC(=O)c2ccc(O[C@H]3CCNC3)c(-c3ccc(F)c(F)c3)c2)ccc1O[C@H]1CCNC1 [Compound 91j, 3′,4′-Difluoro-N-(4′-fluoro-2′-methyl-6-((S)-pyrrolidin-3-yloxy)-[1,1′-biphenyl]-3-yl)-6-((S)-pyrrolidin-3-yloxy)-[1,1′-biphenyl]-3-carboxamide dihydrochloride] | 
3.91 ± 0.734 µM |  | O=C(Nc1ccc(O[C@H]2CCNC2)c(-c2cccc(-c3nn[nH]n3)c2)c1)c1ccc(O[C@H]2CCNC2)c(-c2ccc(F)c(F)c2)c1 [Compound 91k, 3′,4′-Difluoro-6-((S)-pyrrolidin-3-yloxy)-N-(6-((S)-pyrrolidin-3-yloxy)-3′-(2h-tetrazol-5-yl)-[1,1′-biphenyl]-3-yl)-[1,1′-biphenyl]-3-carboxamide dihydrochloride] | 
19.9 ± 4.87 µM |  | O=C(Nc1ccc(O[C@H]2CCNC2)c(-c2ccc(-c3nn[nH]n3)cc2)c1)c1ccc(O[C@H]2CCNC2)c(-c2ccc(F)c(F)c2)c1 [Compound 91l, 3′,4′-Difluoro-6-((S)-pyrrolidin-3-yloxy)-N-(6-((S)-pyrrolidin-3-yloxy)-4′-(2h-tetrazol-5-yl)-[1,1′-biphenyl]-3-yl)-[1,1′-biphenyl]-3-carboxamide dihydrochloride] | 
124 ± 10.4 µM |  | O=C(Nc1ccc(O[C@H]2CCNC2)c(-c2ccc(F)nc2)c1)c1ccc(O[C@H]2CCNC2)c(-c2ccc(F)c(F)c2)c1 [Compound 91m, 3′,4′-Difluoro-N-(3-(6-fluoropyridin-3-yl)-4-((S)-pyrrolidin-3-yloxy)phenyl)-6-((S)-pyrrolidin-3-yloxy)-[1,1′-biphenyl]-3-carboxamide dihydrochloride] | 
